Reference: US6201147A, “Process for the resolution of esters of arylalkylcarboxylic acids” (BASF Aktiengesellschaft, priority 1998, dated 2001)

Key:
[1] = biological target: T1, Candida antarctica lipase (CAL-B, Chirazyme L-2) (Moesziomyces antarcticus, UniProt P41365); test: Lipase-catalyzed transesterification with n-hexanol in toluene; type: biochemical; conditions: for equilibrium constant (value in brackets): transesterification of ethyl esters with n-hexanol, calculated according to Anthonsen et al.
T1 construct: purchased Boehringer Mannheim, Penzberg, Germany
T1 sequence (P41365 26-342): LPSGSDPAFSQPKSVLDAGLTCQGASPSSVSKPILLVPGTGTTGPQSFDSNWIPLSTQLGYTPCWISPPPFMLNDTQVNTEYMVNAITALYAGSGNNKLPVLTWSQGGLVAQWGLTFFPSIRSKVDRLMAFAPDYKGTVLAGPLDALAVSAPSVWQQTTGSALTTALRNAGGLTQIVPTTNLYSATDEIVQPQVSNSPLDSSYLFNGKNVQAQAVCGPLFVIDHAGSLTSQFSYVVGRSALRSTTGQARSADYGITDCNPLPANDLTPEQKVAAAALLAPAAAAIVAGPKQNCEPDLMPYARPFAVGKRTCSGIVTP
Procedure: (§1) If not described otherwise, the ^1 H-NMR spectra were recorded at 250.1 and 500.1 MHz and the ^13 C-NMR spectra at 62.9 and 125.7 MHz in CDCl3 using tetramethylsilane as an internal standard. In cases in which both the racemate and the enatiomeric pure compounds were synthesized, the racemate was used for the full characterization of the compound. […] The gas-chromatography (=GC) analyses were carried out with an Optima 5 column (25 m×0.25 mm; Macherey & Nagel, Duren, Germany) for the determination of the conversion and purity and with a heptakis-(2,3-di-O-acetyl-6-O-TBDMS) -β-cyclodextrin column (25 m×0.25 mm, Prof. W. A. Konig, University of Hamburg, Germany) for the determination of the enantiomeric excess. The immobilized lipase used was Candida antarctica lipase (Chirazyme L-2, c.-f., C2, 5000 U/g) from Boehringer Mannheim, Penzberg, Germany, if not described otherwise. The absolute configuration of the biotransformation products was determined by means of comparison with optically pure standards, which were prepared from the commercially obtainable optically pure carboxylic acids. The enantiomeric excess was calculated by comparison with literature values. The enantioselectivity was determined using the formula E=[ln{(1-c)×(1-ees)}]/[ln{(1-c)×(1+ees)}],
Lipase-catalyzed transesterification: 100 μl of the vinyl esters (0.52 mmol) and 560 μl of n-hexanol (4.49 mmol) were […] stirrer. The reaction was started by addition of 100 mg of CAL-B lipase (500 U) (see Scheme II). Samples were taken from the reaction, diluted with toluene and the lipase was removed by means of centrifugation. The samples were analyzed by GC using the Optima 5 column. After ending the reaction by filtration, product and unreacted substrate were purified by flash chromatography. The enantiomeric purities were determined by means of the specific rotation. In the case of the substrates (±)-3, (±) -4 and (±) -6, the optical purity was additionally determined by means of chiral GC. The ethyl esters were correspondingly reacted as a comparison experiment (see Scheme III). The hydrolysis of the ethyl esters was carried out as a further comparison experiment (see Scheme III).

[2] = biological target: T1, Candida antarctica lipase (CAL-B, Chirazyme L-2); test: Hydrolysis of the ethyl esters with pH-statting; type: biochemical; conditions: hydrolysis in phosphate buffer 50 mM, pH 7.5, 40° C., calculated according to Chen et al.
Procedure: as §1
The hydrolysis of the ethyl esters was carried out with pH-statting. In general, 1 mmol of substrate (6-8) was taken up at 40° C. in 20 ml of phosphate buffer (50 mM, pH 7.5). 200 mg of CAL-B (1000 U) were added at the start of the reaction. The pH was kept constant through the reaction using 0.1 N NaOH. After consumption of base indicated a marked conversion of the substrate, unused substrate was removed by means of extraction with heptane. […] The organic phases were dried using Na2 SO4 and the enantiomeric excess was determined for all compounds by means of the specific rotation and for (±)-6 additionally by means of chiral GC.

[3] = biological target: T2, lipase CAL-B (Moesziomyces antarcticus, UniProt P41365); test: Lipase-catalyzed transesterification with methanol in toluene; type: biochemical, Candida antarctica; conditions: 40° C., 5 hours, calculated from conversion and eep
T2 construct: purchased Boehringer Mannheim
T2 sequence (P41365 26-342): T1 sequence (P41365 26-342)
Procedure: The racemic ibuprofen vinyl ester (209 mg, 0.90 mmol) and methanol (240 mg, 7.5 mmol) were disolved in 8 ml toluene and stirred at 40° C. The reaction was started by adding 416 mg of lipase CAL-B (L-2, c.f., C2, lyo.; Boehringer Mannheim). After 5 hours, the reaction was completed by filtering off the lipase, and the reaction mixture was analyzed by gas chromatography in a chiral column (2,3 di-O-methyl-6-O-pentyl-ε-cyclodextrin). The product and unreacted substrate were purified by flash chromatography on silica gel (developer: ligroin/diethyl ether 35:1). Conversion (GC): 40.5%; Yields: ibuprofen methyl ester 64 mg (0.29 mmol; 32%), eep =76% (GC); ibuprofen vinyl ester 98 mg (0.42 mmol, 47%), ees =[…] (calculated from conversion and eep). An E value of 12 is calculated from conversion and eep.

[4] = transesterification with n-hexanol in toluene, 40° C., CAL-B, calculated according to Chen et al.

E (enantioselectivity) [1, 4] | E (enantioselectivity) ([1]; transesterification with n-hexanol in toluene at room temperature (about 23° C.)) | equilibrium constant (value in brackets) ([1]; 40° C.) | E (enantioselectivity) [2] | E value [3] | Structure (SMILES)
> 100 |  |  |  |  | C=COC(=O)C(CC)c1ccccc1 (racemic) [(±)-3, Vinyl (±)-2-phenylbutyrate]
26 |  |  |  |  | C=COC(=O)C(C)c1ccccc1 (racemic) [(±)-4, Vinyl (±)-2-phenylpropionate]
13 | 23 |  |  |  | C=COC(=O)CC(C)c1ccccc1 (racemic) [(±)-5, Vinyl (±)-3-phenylbutyrate]
5.7 |  | 110 | 3.7 |  | CCOC(=O)C(CC)c1ccccc1 (racemic) [(±)-6, Ethyl (±)-2-phenylbutyrate]
6.8 |  | 123 | 3.5 |  | CCOC(=O)C(C)c1ccccc1 (racemic) [(±)-7, Ethyl (±)-2-phenylpropionate]
4.9 |  | 135 | 9 |  | CCOC(=O)CC(C)c1ccccc1 (racemic) [(±)-8, Ethyl (±) -3-phenylbutyrate]
 |  |  |  | 12 | C=COC(=O)C(C)c1ccc(CC(C)C)cc1 (racemic) [ibuprofen vinyl ester]
